Assay results published in US20230210999A1, “TARGETED PROTEASE DEGRADATION (TED) PLATFORM” (EUBULUS BIOTHERAPEUTICS INC., priority 2020, published 2023).
Like-named read-outs stand apart in the source and are kept apart here.

Tests used:
Format in all cases: cell-based, human
[1] = system: PC-3; assay: Cell proliferation experiment, PC-3; details: read-out: Inhibitory activity IC50 on PC-3
Procedure: (§1) Reagents: RPMI-1640 medium, McCoy's 5A medium, IMDM medium, MEM medium, L-15 medium, fetal bovine serum. Penicillin-Streptomycin double antibody, trypsin, etc., 2-mercaptoethanol, NEAA, pyruvate, etc.
(§2) The cells were cultured in conventional ways, and the cells should be passed at least 2 generations before plating. Cells at the logarithmic growth phase were collected, prepared into single cell suspensions and counted. The concentration of cells was adjusted to the desired concentration, and cells were inoculated into a 96-well cell culture plate at 100 μl per well. 100 μL of complete medium of the test compound were added to each well, set up 2 duplicate wells for each concentration, and diluted with a 5-fold gradient, and continued to culture for 72 h. All cells were subjected to IC50 test for corresponding samples. The experimental results are shown in Test Example 4.
(§3) The fluorescence intensity of each well was detected using the Alarm blue method, and IC50 was calculated.
(§4) IC50 was calculated according to the following formula:
(§5) Y=Max+(Min−Max)/[1+(X/IC50)×Slope]
(§6) wherein Min, Max and Slope represent the minimum, maximum and slope respectively.

[2] = system: NCIH82 cells; assay: Cell proliferation experiment, NCI-H82; details: read-out: Inhibitory activity IC50 on NCI-H82
Summary of the method: (§7)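 Viability measured by Alamar blue fluorescence after 72 h culture with compound (5-fold serial dilutions, two wells each) added to log-phase cells. IC50 derived from a Min/Max/Slope logistic equation.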

[3] = system: MV4;11 cells; assay: Cell proliferation experiment (Alamar blue, 72 h), MV4;11; details: read-out: Inhibitory activity IC50 on MV4;11
Summary of the method: as §7

[4] = system: MDA-MB-231 cells; assay: Cell proliferation experiment, MDA-MB-231; details: read-out: Inhibitory activity IC50 on MDA-MB-231
Procedure: as §1, §2, §3, §4, §5, §6

[5] = Homo sapiens, NCI-H82, NCI-H82 cells
[6] = Homo sapiens, MV4-11, MV4;11 cells
[7] = Homo sapiens, MDA-MB-231, MDA-MB-231 cells

SMILES	IC50 ([1]; Homo sapiens, PC-3, PC-3 cells) [nM]	IC50 [2, 5] [nM]	IC50 [3, 6] [nM]	IC50 [4, 7] [nM]	IC50 ([1]; PC-3 cells) [nM]	IC50 ([2]; NCI-H82 cells) [nM]	IC50 ([3]; MV4;11 cells) [nM]	IC50 ([4]; MDA-MB-231 cells) [nM]
O=C1CCC(N2Cc3c(NC(=O)CNCCCOCCOCCNC(=O)[C@]4(Cc5cccc(Nc6nccs6)n5)CC[C@@H](Oc5cccc(Cl)c5F)CC4)cccc3C2=O)C(=O)N1 (stereo partly shown) [UB-181035]	> 1000	> 1000	100 to 1000	> 1000	–	–	–	–
O=C1CCC(N2Cc3c(NC(=O)CCNCCOCCOCCNC(=O)[C@]4(Cc5cccc(Nc6nccs6)n5)CC[C@@H](Oc5cccc(Cl)c5F)CC4)cccc3C2=O)C(=O)N1 (stereo partly shown) [UB-181036]	> 1000	> 1000	> 1000	> 1000	–	–	–	–
O=C1CCC(N2Cc3c(NC(=O)CCOCCOCCOCCN[C@H]4CC[C@@H](NC(=O)[C@]5(Cc6cccc(Nc7nccs7)n6)CC[C@@H](Oc6cccc(Cl)c6F)CC5)CC4)cccc3C2=O)C(=O)N1 (stereo partly shown) [UB-181037]	> 1000	> 1000	> 1000	> 1000	–	–	–	–
O=C1CCC(N2Cc3cc(NC(=O)CCOCCOCCOCCN[C@H]4CC[C@@H](NC(=O)[C@]5(Cc6cccc(Nc7nccs7)n6)CC[C@@H](Oc6cccc(Cl)c6F)CC5)CC4)ccc3C2=O)C(=O)N1 (stereo partly shown) [UB-181038]	> 1000	> 1000	> 1000	> 1000	–	–	–	–
CC[C@@H]1C(=O)N(C)c2cnc(Nc3ccc(-c4cn([C@H]5CC[C@@H](N(CCO)CCOCCC#Cc6cccc7c6CN(C6CCC(=O)NC6=O)C7=O)CC5)nn4)cc3OC)nc2N1C1CCCC1 (stereo partly shown) [UB-181052]	< 10	–	10 to 100	100 to 1000	–	–	–	–
CNC(=O)c1ccccc1Nc1nc(Nc2ccc(N3CCN(C(=O)NCCNCCC(=O)Nc4cccc5c4CN(C4CCC(=O)NC4=O)C5=O)CC3)cc2)ncc1Cl (stereo not shown) [UB-181053]	> 1000	100 to 1000	10 to 100	> 1000	–	–	–	–
CNC(=O)c1ccccc1Nc1nc(Nc2ccc(N3CCN(C(=O)NCCNCCCC(=O)Nc4cccc5c4CN(C4CCC(=O)NC4=O)C5=O)CC3)cc2)ncc1Cl (stereo not shown) [UB-181055]	> 1000	100 to 1000	10 to 100	> 1000	–	–	–	–
CNC(=O)c1ccccc1Nc1nc(Nc2ccc(N3CCN(C(=O)NCCNCCOCC(=O)Nc4cccc5c4CN(C4CCC(=O)NC4=O)C5=O)CC3)cc2)ncc1Cl (stereo not shown) [UB-181057]	> 1000	100 to 1000	< 10	> 1000	–	–	–	–
CNC(=O)c1ccccc1Nc1nc(Nc2ccc(N3CCN(C(=O)NCCCNCCOCC(=O)Nc4cccc5c4CN(C4CCC(=O)NC4=O)C5=O)CC3)cc2)ncc1Cl (stereo not shown) [UB-181061]	> 1000	100 to 1000	< 10	100 to 1000	–	–	–	–
CC[C@@H]1C(=O)N(C)c2cnc(Nc3ccc(-c4cn([C@H]5CC[C@@H](N(CCOCCC#Cc6cccc7c6CN(C6CCC(=O)NC6=O)C7=O)C(=O)CO)CC5)nn4)cc3OC)nc2N1C1CCCC1 (stereo partly shown) [UB-181063]	100 to 1000	–	< 10	100 to 1000	–	–	–	–
CC[C@@H]1C(=O)N(C)c2cnc(Nc3ccc(-c4cn([C@H]5CC[C@@H](NCCCOCC#Cc6cccc7c6CN(C6CCC(=O)NC6=O)C7=O)CC5)nn4)cc3OC)nc2N1C1CCCC1 (stereo partly shown) [UB-181089]	10 to 100	–	10 to 100	10 to 100	–	–	–	–
CC[C@@H]1C(=O)N(C)c2cnc(Nc3ccc(NC(=O)N[C@H]4CC[C@H](NCCOCCC#Cc5cccc6c5CN(C5CCC(=O)NC5=O)C6=O)CC4)cc3)nc2N1C1CCCC1 (stereo partly shown) [UB-181126]	100 to 1000	–	< 10	100 to 1000	–	–	–	–
CC[C@@H]1C(=O)N(C)c2cnc(Nc3ccc(NC(=O)N[C@H]4CC[C@H](NCCOCCC#Cc5cccc6c5CN(C5CCC(=O)NC5=O)C6=O)CC4)cc3OC)nc2N1C1CCCC1 (stereo partly shown) [UB-181130]	100 to 1000	–	< 10	100 to 1000	–	–	–	–
CC[C@@H]1C(=O)N(C)c2cnc(Nc3ccc(-c4cn([C@H]5CC[C@@H](NCCOCCC#Cc6cccc7c6CN(C6CCC(=O)NC6=O)C7=O)CC5)nn4)nc3)nc2N1C1CCCC1 (stereo partly shown) [UB-181153]	100 to 1000	–	10 to 100	100 to 1000	–	–	–	–

Results, then the compound that gave them:

IC50 ([1]; Homo sapiens, PC-3, PC-3 cells) [nM]	IC50 [2, 5] [nM]	IC50 [3, 6] [nM]	IC50 [4, 7] [nM]	IC50 ([1]; PC-3 cells) [nM]	IC50 ([2]; NCI-H82 cells) [nM]	IC50 ([3]; MV4;11 cells) [nM]	IC50 ([4]; MDA-MB-231 cells) [nM]	SMILES
> 1000	> 1000	> 1000	> 1000	–	–	–	–	O=C1CCC(N2Cc3cc(NC(=O)CCNCCOCCOCCNC(=O)[C@]4(Cc5cccc(Nc6nccs6)n5)CC[C@@H](Oc5cccc(Cl)c5F)CC4)ccc3C2=O)C(=O)N1 (stereo partly shown) [UB-181031]
> 1000	> 1000	100 to 1000	> 1000	–	–	–	–	O=C1CCC(N2Cc3cc(NC(=O)CNCCCOCCOCCNC(=O)[C@]4(Cc5cccc(Nc6nccs6)n5)CC[C@@H](Oc5cccc(Cl)c5F)CC4)ccc3C2=O)C(=O)N1 (stereo partly shown) [UB-181032]
> 1000	> 1000	100 to 1000	> 1000	–	–	–	–	O=C1CCC(N2Cc3cc(NC(=O)CCNCCCOCCCCNC(=O)c4ccc(Nc5ncc6c(n5)-c5ccc(Cl)cc5C(c5c(F)cccc5F)=NC6)cc4)ccc3C2=O)C(=O)N1 (stereo not shown) [UB-181033]
> 1000	> 1000	100 to 1000	> 1000	–	–	–	–	O=C1CCC(N2Cc3cc(NC(=O)CCNCCCOCCCCNC(=O)[C@]4(Cc5cccc(Nc6nccs6)n5)CC[C@@H](Oc5cccc(Cl)c5F)CC4)ccc3C2=O)C(=O)N1 (stereo partly shown) [UB-181034]
> 1000	100 to 1000	10 to 100	> 1000	–	–	–	–	CNC(=O)c1ccccc1Nc1nc(Nc2ccc(N3CCN(C(=O)NCCOCCOCCNCCC(=O)Nc4ccc5c(c4)CN(C4CCC(=O)NC4=O)C5=O)CC3)cc2)ncc1Cl (stereo not shown) [UB-181039]
> 1000	> 1000	10 to 100	> 1000	–	–	–	–	CNC(=O)c1ccccc1Nc1nc(Nc2ccc(N3CCN(C(=O)NCCOCCOCCCNCC(=O)Nc4cccc5c4CN(C4CCC(=O)NC4=O)C5=O)CC3)cc2)ncc1Cl (stereo not shown) [UB-181040]
> 1000	> 1000	> 1000	> 1000	–	–	–	–	O=C1CCC(N2Cc3cc(NC(=O)CCOCCNCCOCCn4cc(-c5ccc(Nc6ncc7c(n6)-c6ccc(Cl)cc6C(c6c(F)cccc6F)=NC7)cc5)nn4)ccc3C2=O)C(=O)N1 (stereo not shown) [UB-181041]
> 1000	100 to 1000	10 to 100	> 1000	–	–	–	–	CNC(=O)c1ccccc1Nc1nc(Nc2ccc(N3CCN(C(=O)NCCCCOCCCNCCC(=O)Nc4ccc5c(c4)CN(C4CCC(=O)NC4=O)C5=O)CC3)cc2)ncc1Cl (stereo not shown) [UB-181042]
> 1000	100 to 1000	< 10	> 1000	–	–	–	–	CNC(=O)c1ccccc1Nc1nc(Nc2ccc(N3CCN(C(=O)NCCOCCOCCNCCC(=O)Nc4cccc5c4CN(C4CCC(=O)NC4=O)C5=O)CC3)cc2)ncc1Cl (stereo not shown) [UB-181043]
> 1000	100 to 1000	10 to 100	> 1000	–	–	–	–	CNC(=O)c1ccccc1Nc1nc(Nc2ccc(N3CCN(C(=O)NCCNCCOCCOCCC(=O)Nc4ccc5c(c4)CN(C4CCC(=O)NC4=O)C5=O)CC3)cc2)ncc1Cl (stereo not shown) [UB-181044]
–	–	–	–	> 1000	100 to 1000	< 10	> 1000	CNC(=O)c1ccccc1Nc1nc(Nc2ccc(N3CCN(C(=O)NCCCCOCCCNCCC(=O)Nc4ccc5c(c4)CN(C4CCC(=O)NC4=O)C5=O)CC3)cc2)ncc1Cl (stereo not shown) [UB-181046]
> 1000	100 to 1000	10 to 100	> 1000	–	–	–	–	CNC(=O)c1ccccc1Nc1nc(Nc2ccc(N3CCN(C(=O)NCCOCCOCCCNCC(=O)Nc4ccc5c(c4)CN(C4CCC(=O)NC4=O)C5=O)CC3)cc2)ncc1Cl (stereo not shown) [UB-181047]
> 1000	100 to 1000	100 to 1000	> 1000	–	–	–	–	CNC(=O)c1ccccc1Nc1nc(Nc2ccc(N3CCN(C(=O)NCCOCCNCCOCCC(=O)Nc4ccc5c(c4)CN(C4CCC(=O)NC4=O)C5=O)CC3)cc2)ncc1Cl (stereo not shown) [UB-181050]
> 1000	> 1000	10 to 100	> 1000	–	–	–	–	CNC(=O)c1ccccc1Nc1nc(Nc2ccc(N3CCN(C(=O)NCCOCCNCCOCCC(=O)Nc4cccc5c4CN(C4CCC(=O)NC4=O)C5=O)CC3)cc2)ncc1Cl (stereo not shown) [UB-181051]
> 1000	100 to 1000	10 to 100	> 1000	–	–	–	–	CNC(=O)c1ccccc1Nc1nc(Nc2ccc(N3CCN(C(=O)NCCNCCCC(=O)Nc4ccc5c(c4)CN(C4CCC(=O)NC4=O)C5=O)CC3)cc2)ncc1Cl (stereo not shown) [UB-181056]
> 1000	100 to 1000	10 to 100	> 1000	–	–	–	–	CNC(=O)c1ccccc1Nc1nc(Nc2ccc(N3CCN(C(=O)NCCNCCOCC(=O)Nc4ccc5c(c4)CN(C4CCC(=O)NC4=O)C5=O)CC3)cc2)ncc1Cl (stereo not shown) [UB-181058]
> 1000	10 to 100	10 to 100	> 1000	–	–	–	–	CNC(=O)c1ccccc1Nc1nc(Nc2ccc(N3CCN(C(=O)NCCOCCOCCOCCC(=O)Nc4ccc5c(c4)CN(C4CCC(=O)NC4=O)C5=O)CC3)cc2)ncc1Cl (stereo not shown) [UB-181060]
